Test results taken from article PMC4109680, “Identification and Preclinical Pharmacology of the γ-Secretase Modulator BMS-869780” (International Journal of Alzheimer's Disease, 2014).

Test system: Aβ peptides (H4-APPsw)
Experiment: Aβ peptide profile in H4-APPsw cultures by MALDI-TOF mass spectrometry and urea gel western blot
Type: cell-based, human
Experimental: For western blotting of Aβ peptides from H4-APPsw cell cultures, Aβ was immunoprecipitated directly from the cell culture medium and was eluted from the protein G beads by addition of lithium dodecyl sulfate (LDS) electrophoresis sample buffer (Invitrogen). Aβ peptides were separated by gel electrophoresis in the presence of 8 M urea, transferred to PVDF membrane, and detected by western blotting using monoclonal 26D6-HRP conjugate.
H4-APPsw cell cultures were grown in T-75 flasks until 75% confluent and rinsed with Dulbecco's phosphate buffered saline (DPBS; Gibco cat number 14109), and 20 mL of DMEM supplemented with L-glutamine (2 mM), geneticin, penicillin, streptomycin, and DMSO with or without BMS-869780 was added (final concentration of DMSO was 0.2%). After incubation for 24 hours at 37°C in 5% CO2, culture medium was removed, centrifuged to remove cells, and frozen in aliquots at −80°C. For immunoprecipitation, aliquots of cell medium (4 mL) were thawed, followed by the addition of protease inhibitor cocktail (Sigma P-8340) to a final concentration of 1%, 60 ng of [^15N]-Aβ1-40 synthetic peptide (rPeptide, 1101-1, Athens, GA), 30 μg of monoclonal 26D6, and 15 μg of monoclonal 4G8. After incubation for 20 min on ice, 80 μL of protein G agarose beads (Pierce Rockford, IL) was added, and incubation was continued overnight at 4°C. […]
Figure 3 BMS-869780 increased the levels of the shorter peptides Aβ1-38 and Aβ1-37. (a) Top panel: an equimolar mix of synthetic peptides Aβ1-37, Aβ1-38, Aβ1-39, Aβ1-40, [^15N]-Aβ1-40, and Aβ1-42 was evaluated by MALDI-TOF mass spectrometry. H4-APPsw cell cultures were treated with vehicle (0.1% DMSO—middle panel) or BMS-869780 (100 nM—bottom panel), [^15N]-Aβ1-40 was added, and Aβ peptides were immunoprecipitated and evaluated by MALDI-TOF mass spectrometry. […] Aβ peptides were separated by gel electrophoresis in the presence of urea and detected by western blotting. […]

COc1cc(Nc2nc3n(n2)CCCC[C@H]3c2ccc(F)cc2)ccc1-n1cnc(Cl)c1 [BMS-869780]
Aβ1-37 and Aβ1-38 levels by MALDI mass spectrometry (100 nM): dramatically increased | Aβ1-40 and Aβ1-42 levels by MALDI mass spectrometry (100 nM): essentially undetectable | Aβ1-37 and Aβ1-38 levels by western blot (100 nM and 10 nM): Increased levels
